Experimental data taken from patent publication US20250084087A1, “BICYCLIC HETEROCYCLES AS MRGPRX2 ANTAGONISTS” (Incyte Corporation, priority 2023, published 2025).

Biological target: T1, MRGPRX2 (Homo sapiens, UniProt Q96LB1)
T1 sequence (Q96LB1 1-330): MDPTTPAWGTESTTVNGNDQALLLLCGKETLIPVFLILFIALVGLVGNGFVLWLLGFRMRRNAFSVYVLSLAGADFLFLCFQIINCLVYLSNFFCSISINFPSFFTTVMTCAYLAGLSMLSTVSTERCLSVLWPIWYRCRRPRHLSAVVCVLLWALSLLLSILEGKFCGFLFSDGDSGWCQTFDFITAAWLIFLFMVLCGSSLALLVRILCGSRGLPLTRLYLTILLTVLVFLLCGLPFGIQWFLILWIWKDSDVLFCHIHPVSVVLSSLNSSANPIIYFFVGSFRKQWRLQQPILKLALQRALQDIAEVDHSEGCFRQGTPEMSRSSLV
Test: MRGPRX2 IP1 HTRF assay
Format: cell-based
Design: host or cells: CHO-K1
Conditions: CHO-K1 cells stably expressing human MRGPRX2; IP1 accumulation; agonist Cortistatin 14 1 μM
Excerpt: Example B: MRGPRX2 IP1 HTRF Assay
This assay measures compound inhibition of myo-Inositol 1 phosphate (IP1) accumulation in CHO-K1 cells. Chinese hamster ovary (CHO-K1) cells stably expressing human MRGPRX2 were purchased from GenScript (Piscataway, NJ).
For the HTRF IP1 determination, an IP-One GqKit (Perkin Elmer Cisbio, Waltham, MA), which includes all reagents and buffers in this protocol, was used. The cells were maintained in culture medium (Ham's F-12K) containing 10% (v/v) FBS, and 200 μg/mL Zeocin. For the assay, the cells were harvested and resuspended in culture medium with 2% FBS and without Zeocin, then were passed through a 40 μm filter. Cells were added at 20000 cells in a 5 μL/well to a 384-well white small volume cell culture plate (Greiner VWR, Radnor, PA) which contained 50 nL/well of test compound serially diluted at a selected concentration range in DMSO. 5 μL/well of prepared 2× Stimulation Buffer2 was then added to plates and was incubated at 37° C. with 5% CO2 for 1 h. 5 μL/well of agonist Cortistatin 14 (Bio-TechneR&D Systems, Minneapolis, MN) in 1× Stimulation Buffer2, for a 1 μM final concentration, was then added to plates and incubated at 37° C. with 5% CO2 for 1 h. 6 μL/well of 1:20 diluted Detection Reagent Mix (d2 and Cryptate) was added to the plates and incubated for 1 h in the dark. Plates were read on the PHERAstar microplate reader (BMG Labtech Cary, NC) to determine the HTRF ratio of the acceptor and donor emission signals. The IP1 concentrations were calculated from a standard curve following the IP-One GQ kit instructions. Wells with DMSO only and wells with high concentration of reference antagonist were used as controls for normalization. Compound IC50 curves were globally fitted with 3- or 4-parameter Hill equation in a Genedata Screener (Genedata Basel, Switzerland).

NC(=O)N1CCC(CNc2cc(Cl)nc3nc(C(F)(F)F)cn23)(c2ccccc2)CC1 [Example 1, 4-(((7-Chloro-2-(trifluoromethyl)imidazo[1,2-a]pyrimidin-5-yl)amino)methyl)-4-phenylpiperidine-1-carboxamide] and NC(=O)N1CCC(CNc2nccc3nc(C(F)(F)F)cn23)(c2ccccc2)CC1 [Example 2, 4-Phenyl-4-(((2-(trifluoromethyl)imidazo[1,2-c]pyrimidin-5-yl)amino)methyl)piperidine-1-carboxamide] fall in the same range of IC50: 100 to 1000 nM for the first, 100 to 1000 nM for the second.

CNC(=O)N1CC(CNc2cc(Cl)cc3nc(C(F)(F)F)cn23)(c2ccc(F)cn2)C1 [Example 25, 3-(((7-Chloro-2-(trifluoromethyl)imidazo[1,2-a]pyridin-5-yl)amino)methyl)-3-(5-fluoropyridin-2-yl)-N-methylazetidine-1-carboxamide] and CNC(=O)N1CC(CNc2cc(C(F)(F)F)nc3cc(C(F)(F)F)nn23)(n2cc(F)cn2)C1 [Example 41, 3-(((2,5-Bis(trifluoromethyl)pyrazolo[1,5-a]pyrimidin-7-yl)amino)methyl)-3-(4-fluoro-1H-pyrazol-1-yl)-N-methylazetidine-1-carboxamide] fall in the same range of IC50: 0.1 to 100 nM for the first, 0.1 to 100 nM for the second.

Nc1nc(N2CCC(CNc3cc(C(F)F)nc4cc(C(F)(F)F)nn34)(c3ccccc3)CC2)n[nH]1 [Example 42, N-((1-(5-Amino-1H-1,2,4-triazol-3-yl)-4-phenylpiperidin-4-yl)methyl)-5-(difluoromethyl)-2-(trifluoromethyl)pyrazolo[1,5-a]pyrimidin-7-amine] and C[C@]1(O)C[C@@H](NC(=O)N2CC(CNc3cc(C(F)(F)F)nc4cc(C(F)(F)F)nn34)(c3ccc(F)cc3)C2)C1 [Example 52, 3-(((2,5-Bis(trifluoromethyl)pyrazolo[1,5-a]pyrimidin-7-yl)amino)methyl)-3-(4-fluorophenyl)-N-((1s,3s)-3-hydroxy-3-methylcyclobutyl)azetidine-1-carboxamide] fall in the same range of IC50: 0.1 to 100 nM for the first, 0.1 to 100 nM for the second.

Biological target: T1, MRGPRX2
Test: MRGPRX2 β-Arrestin recruitment assay (PathHunter)
Format: cell-based
Design: host or cells: CHO-K1 (PathHunter)
Conditions: PathHunter CHO-K1 MRGPRX2 β-Arrestin cell line; agonist Cortistatin 14 0.25 μM
Excerpt: Example C: MRGPRX2 P-Arrestin Assay
This assay measures compound inhibition of P-Arrestin recruitment, which is part of the G protein-independent pathway that results from the ligand-activated GPCR phosphorylation by specific GPCR kinases. The PathHunter CHO-K1 MRPGRX2 B-Arrestin Cell line stably expressing ProLink tagged MRGPRX2 and Enzyme Acceptor Tagged B-Arrestin was purchased from Eurofins DiscoverX, (Fremont, CA).
The cells were maintained in culture medium from the Europhins DiscoverX Cell Culture Kit-107 which includes FBS, hygromycin B and G418. For the assay, the cells were harvested and were resuspended with Cell Plating Reagent 2 (Eurofins DiscoverX). Cells were added 10000 cells in 25 μL/well to a 384-well black cell culture plate (Greiner VWR, Radnor, PA) which contained 125 nL/well of compound at a selected serially diluted concentration range or DMSO. The plate was incubated at 37° C. with 5% CO2 for 1 h. 2 μL/well of agonist Cortistatin 14 was diluted in Protein Dilution Buffer, (Eurofins DiscoverX) for a final concentration of 0.25 μM, was added and the plate was incubated at 37° C. with 5% CO2 for 90 min. 14 μL/well of Detection Reagent Mix (PathHunter Detection Kit, Eurofins DiscoverX) was added to the plates and further incubated for 1 h in the dark. Plates were read on the PHERAstar microplate reader (BMG Labtech Cary, NC) measuring luminescence 0.1 to 1 second per well. Data was normalized using DMSO only wells and wells with high concentration of reference antagonist as controls. Compound IC50 curves were globally fitted with 3- or 4-parameter Hill equation in a Genedata Screener (Genedata Basel, Switzerland).

OC1CCC(CNc2cc(C(F)(F)F)nc3cc(Br)nn23)(c2ccncc2)C1 (racemic) [Example 86, 3-(((2-Bromo-5-(trifluoromethyl)pyrazolo[1,5-a]pyrimidin-7-yl)amino)methyl)-3-(pyridin-4-yl)cyclopentan-1-ol] and CNC1CCC(CNc2cc(C(F)(F)F)nc3cc(Br)nn23)(c2cccnc2)C1 (stereo not shown) [Example 87, 2-Bromo-N-((3-(methylamino)-1-(pyridin-3-yl)cyclopentyl)methyl)-5-(trifluoromethyl)pyrazolo[1,5-a]pyrimidin-7-amine] fall in the same range of IC50: 0.1 to 100 nM for the first, 0.1 to 100 nM for the second.

First: OCC1CC1(CNc1cc(C(F)(F)F)nc2cc(Br)nn12)c1ccccn1 (single isomer, unassigned) [Example 88, (2-(((2-Bromo-5-(trifluoromethyl)pyrazolo[1,5-a]pyrimidin-7-yl)amino)methyl)-2-(pyridin-2-yl)cyclopropyl)methanol]
Second: OCC1CC1(CNc1cc(C(F)(F)F)nc2cc(Br)nn12)c1ccccc1 (single isomer, unassigned) [Example 89, (2-(((2-Bromo-5-(trifluoromethyl)pyrazolo[1,5-a]pyrimidin-7-yl)amino)methyl)-2-phenylcyclopropyl)methanol]
The IC50 of the first is higher: > 1000 nM for the first, 100 to 1000 nM for the second. The second is the more potent here.

CNC(=O)N1CC(CNc2cc(Cl)cc3nc(C(F)(F)F)cn23)(c2ccc(F)cn2)C1 [Example 25, 3-(((7-Chloro-2-(trifluoromethyl)imidazo[1,2-a]pyridin-5-yl)amino)methyl)-3-(5-fluoropyridin-2-yl)-N-methylazetidine-1-carboxamide] and N#CC12CC(NC(=O)N3CC(CNc4cc(C(F)(F)F)nc5cc(C(F)(F)F)nn45)(c4ccc(F)cn4)C3)(C1)C2 [Example 64, 3-(((2,5-Bis(trifluoromethyl)pyrazolo[1,5-a]pyrimidin-7-yl)amino)methyl)-N-(3-cyanobicyclo[1.1.1]pentan-1-yl)-3-(5-fluoropyridin-2-yl)azetidine-1-carboxamide] fall in the same range of IC50: 0.1 to 100 nM for the first, 0.1 to 100 nM for the second.

CNC(=O)N1CC(CNc2cc(C(F)(F)F)nc3cc(C(F)(F)F)nn23)(n2cc(F)cn2)C1 [Example 41, 3-(((2,5-Bis(trifluoromethyl)pyrazolo[1,5-a]pyrimidin-7-yl)amino)methyl)-3-(4-fluoro-1H-pyrazol-1-yl)-N-methylazetidine-1-carboxamide] and C[C@]1(O)C[C@@H](NC(=O)N2CC(CNc3cc(C(F)(F)F)nc4cc(C(F)(F)F)nn34)(c3ccc(F)cc3)C2)C1 [Example 52, 3-(((2,5-Bis(trifluoromethyl)pyrazolo[1,5-a]pyrimidin-7-yl)amino)methyl)-3-(4-fluorophenyl)-N-((1s,3s)-3-hydroxy-3-methylcyclobutyl)azetidine-1-carboxamide] fall in the same range of IC50: 0.1 to 100 nM for the first, 0.1 to 100 nM for the second.

Nc1nc(N2CCC(CNc3cc(C(F)F)nc4cc(C(F)(F)F)nn34)(c3ccccc3)CC2)n[nH]1 [Example 42, N-((1-(5-Amino-1H-1,2,4-triazol-3-yl)-4-phenylpiperidin-4-yl)methyl)-5-(difluoromethyl)-2-(trifluoromethyl)pyrazolo[1,5-a]pyrimidin-7-amine] and CO[C@H]1C[C@](CNc2cc(C(F)(F)F)nc3cc(C(F)(F)F)nn23)(c2ccccc2)C1 [Example 75, N-(((1s,3s)-3-Methoxy-1-phenylcyclobutyl)methyl)-2,5-bis(trifluoromethyl)pyrazolo[1,5-a]pyrimidin-7-amine] fall in the same range of IC50: 0.1 to 100 nM for the first, 0.1 to 100 nM for the second.

O=c1cc(N2CC(CNc3cc(C(F)(F)F)nc4cc(C(F)(F)F)nn34)(c3ccc(F)cc3)C2)ccn1C1CC1 [Example 51, 4-(3-(((2,5-Bis(trifluoromethyl)pyrazolo[1,5-a]pyrimidin-7-yl)amino)methyl)-3-(4-fluorophenyl)azetidin-1-yl)-1-cyclopropylpyridin-2(1H)-one] and NC(=O)C1(N)CC(CNc2cc(C(F)(F)F)nc3cc(C(F)(F)F)nn23)(c2ccc(F)cc2)C1 (stereo not shown) [Example 76, 1-Amino-3-(((2,5-bis(trifluoromethyl)pyrazolo[1,5-a]pyrimidin-7-yl)amino)methyl)-3-(4-fluorophenyl)cyclobutane-1-carboxamide] fall in the same range of IC50: 0.1 to 100 nM for the first, 0.1 to 100 nM for the second.

Compared with [2H]C([2H])([2H])c1cc(NCC2(c3ccc(F)cc3)CN(C(N)=O)C2)n2nc(C(F)(F)F)cc2n1 [Example 70, 3-(4-Fluorophenyl)-3-(((5-(methyl-d3)-2-(trifluoromethyl)pyrazolo[1,5-a]pyrimidin-7-yl)amino)methyl)azetidine-1-carboxamide], [2H]C([2H])([2H])NC(=O)N1CC(CNc2cc(C3CCC3)nc3cc(C(F)(F)F)nn23)(c2ccc(F)cc2)C1 [Example 108, 3-(((5-Cyclobutyl-2-(trifluoromethyl)pyrazolo[1,5-a]pyrimidin-7-yl)amino)methyl)-3-(4-fluorophenyl)-N-(methyl-d3)azetidine-1-carboxamide] is higher in IC50: 0.1 to 100 nM for the first, 100 to 1000 nM for the second.

First: CCc1cc(NCC2(c3ccc(F)cc3)CCC(N)(C#N)CC2)n2nc(C(F)(F)F)cc2n1 (stereo not shown) [Example 72, 1-Amino-4-(((5-ethyl-2-(trifluoromethyl)pyrazolo[1,5-a]pyrimidin-7-yl)amino)methyl)-4-(4-fluorophenyl)cyclohexane-1-carbonitrile]
Second: Cc1ccc(C2(CNc3cc(C(F)(F)F)nc4cc(C(F)(F)F)nn34)CN(S(N)(=O)=O)C2)cn1 [Example 97, 3-(((2,5-Bis(trifluoromethyl)pyrazolo[1,5-a]pyrimidin-7-yl)amino)methyl)-3-(6-methylpyridin-3-yl)azetidine-1-sulfonamide]
The IC50 of the first is lower: 0.1 to 100 nM for the first, 100 to 1000 nM for the second.

Compared with NC(=O)N1CC(CNc2cc(Cl)cc3nc(C(F)(F)F)nn23)(c2ccccc2)C1 [Example 79, 3-(((7-Chloro-2-(trifluoromethyl)-[1,2,4]triazolo[1,5-a]pyridin-5-yl)amino)methyl)-3-phenylazetidine-1-carboxamide], [2H]C([2H])([2H])NC(=O)N1CC(CNc2cc(C3CC3)nc3cc(C(F)(F)F)nn23)(c2ccc(C(=O)N(C)C)cc2)C1 [Example 107, 3-(((5-Cyclopropyl-2-(trifluoromethyl)pyrazolo[1,5-a]pyrimidin-7-yl)amino)methyl)-3-(4-(dimethylcarbamoyl)phenyl)-N-(methyl-d3)azetidine-1-carboxamide] is higher in IC50: 0.1 to 100 nM for the first, > 1000 nM for the second.

OC1CC(CNc2cc(C(F)(F)F)nc3nc(C(F)(F)F)cn23)(c2ccc(F)cc2)C1 (stereo not shown) [Example 80, 3-(((2,7-Bis(trifluoromethyl)imidazo[1,2-a]pyrimidin-5-yl)amino)methyl)-3-(4-fluorophenyl)cyclobutan-1-ol] gave an IC50 of 0.1 to 100 nM.
